# Source: paper PMC4303209, “A novel phosphatidylinositol 3-kinase (PI3K) inhibitor directs a potent FOXO-dependent, p53-independent cell cycle arrest phenotype characterized by the differential induction of a subset of FOXO-regulated genes” (Breast Cancer Research : BCR, 2014)
# System: MCF-7 breast cancer cells
# Experiment: Microarray gene expression analysis (Agilent whole human genome 4 x 44K; compound vs DMSO, LIMMA log2 fold change)
# Format: cell-based
# Conditions: cell cycle genes
smiles,measurement,setting,value
Cn1ncc2c(N3CCOCC3)nc(-c3cccc(O)c3)nc21 [ETP-45658],TRIAP1 log2FC,Gene 51499,-0.820
same,DTL log2FC,Gene 51514,0.044
same,SIRT7 log2FC,Gene 51547,0.404
same,CINP log2FC,Gene 51550,-0.074
same,GINS2 log2FC,Gene 51659,-0.721
same,NUP54 log2FC,Gene 53371,0.683
same,PELO log2FC,Gene 53918,-0.595
same,WNT4 log2FC,Gene 54361,-0.709
same,ANLN log2FC,Gene 54443,0.699
same,FBXW5 log2FC,Gene 54461,-0.054
same,FAM64A log2FC,Gene 54478,0.090
same,DDX4 log2FC,Gene 54514,-0.146
same,BTG4 log2FC,Gene 54766,0.249
same,NDE1 log2FC,Gene 54820,0.535
same,NSUN2 log2FC,Gene 54888,-0.186
same,TTC19 log2FC,Gene 54902,0.753
same,TXNL4B log2FC,Gene 54957,0.617
same,BANP log2FC,Gene 54971,-0.168
same,AURKAIP1 log2FC,Gene 54998,-0.353
same,PHIP log2FC,Gene 55023,1.243
same,USP47 log2FC,Gene 55031,0.762
same,ZWILCH log2FC,Gene 55055,0.619
same,PIWIL2 log2FC,Gene 55124,-0.029
same,CEP192 log2FC,Gene 55125,0.534
same,CDCA8 log2FC,Gene 55143,-0.107
same,RFWD3 log2FC,Gene 55159,-0.597
same,CEP55 log2FC,Gene 55165,1.059
same,CENPQ log2FC,Gene 55166,0.796
same,RIF1 log2FC,Gene 55183,0.443
same,ARL8B log2FC,Gene 55207,0.686
same,RCBTB1 log2FC,Gene 55213,0.799
same,CCDC87 log2FC,Gene 55231,-0.125
same,STEAP3 log2FC,Gene 55240,-0.569
same,MNS1 log2FC,Gene 55329,0.765
same,MCM10 log2FC,Gene 55388,-0.683
same,SMPD3 log2FC,Gene 55512,-0.280
same,TRIM36 log2FC,Gene 55521,0.705
same,RBM38 log2FC,Gene 55544,-0.536
same,PRR5 log2FC,Gene 55615,0.335
same,PRPF40A log2FC,Gene 55660,1.175
same,CEP72 log2FC,Gene 55722,0.344
same,CHFR log2FC,Gene 55743,-0.026
same,NUP133 log2FC,Gene 55746,0.409
same,CCAR1 log2FC,Gene 55749,0.836
same,CDK5RAP2 log2FC,Gene 55755,0.516
same,PCID2 log2FC,Gene 55795,0.322
same,CENPN log2FC,Gene 55839,0.469
same,PPP2R2D log2FC,Gene 55844,0.037
same,HDAC8 log2FC,Gene 55869,-0.325
same,PBK log2FC,Gene 55872,0.522
same,BIN3 log2FC,Gene 55909,-0.746
same,ERBB2IP log2FC,Gene 55914,1.051
same,RCC2 log2FC,Gene 55920,-0.248
same,KLHL9 log2FC,Gene 55958,0.133
same,TEX11 log2FC,Gene 56159,-0.066
same,TDRD1 log2FC,Gene 56165,0.246
same,PARD3 log2FC,Gene 56288,0.418
same,RPRM log2FC,Gene 56475,-0.078
same,CYP26B1 log2FC,Gene 56603,0.090
same,SPIRE1 log2FC,Gene 56907,0.377
same,SMARCAD1 log2FC,Gene 56916,0.653
same,PRDM9 log2FC,Gene 56979,0.085
same,KIF15 log2FC,Gene 56992,1.353
same,PDXP log2FC,Gene 57026,-1.027
same,PCBP4 log2FC,Gene 57060,-0.519
same,CASC5 log2FC,Gene 57082,0.187
same,PCNP log2FC,Gene 57092,0.687
same,NUP107 log2FC,Gene 57122,0.862
same,CHMP1B log2FC,Gene 57132,0.826
same,PAK7 log2FC,Gene 57144,0.396
same,CSRP2BP log2FC,Gene 57325,0.412
same,TTYH1 log2FC,Gene 57348,-0.189
same,BIRC6 log2FC,Gene 57448,0.155
same,MTA3 log2FC,Gene 57504,0.345
same,HACE1 log2FC,Gene 57531,0.593
same,TAOK1 log2FC,Gene 57551,0.386
same,USP37 log2FC,Gene 57695,0.513
same,FANCM log2FC,Gene 57697,0.486
same,CCNB1IP1 log2FC,Gene 57820,1.174
same,RHOU log2FC,Gene 58480,1.289
same,OVOL2 log2FC,Gene 58495,-0.133
same,AVPI1 log2FC,Gene 60370,0.391
same,RINT1 log2FC,Gene 60561,0.804
same,FAM111A log2FC,Gene 63901,0.319
same,DMRTC2 log2FC,Gene 63946,-0.047
same,CLSPN log2FC,Gene 63967,0.066
same,TSPYL2 log2FC,Gene 64061,-0.073
same,DPEP3 log2FC,Gene 64180,-0.246
same,RFWD2 log2FC,Gene 64326,0.063
same,CENPH log2FC,Gene 64946,0.860
same,MRPL41 log2FC,Gene 64975,-0.545
same,INTS3 log2FC,Gene 65123,-0.455
same,PHACTR4 log2FC,Gene 65979,0.399
same,BOLL log2FC,Gene 66037,-0.038
same,MIS12 log2FC,Gene 79003,-0.429
same,CENPM log2FC,Gene 79019,-0.105
same,NUP37 log2FC,Gene 79023,0.431
same,ZNF655 log2FC,Gene 79027,0.893
same,CENPO log2FC,Gene 79172,-0.787
same,E2F8 log2FC,Gene 79733,0.114
same,FBXO31 log2FC,Gene 79791,-0.232
same,CSPP1 log2FC,Gene 79848,0.754
same,NEK11 log2FC,Gene 79858,0.568
same,MAP9 log2FC,Gene 79884,1.193
same,NUP85 log2FC,Gene 79902,0.292
same,CEP76 log2FC,Gene 79959,0.323
same,CENPT log2FC,Gene 80152,-0.175
same,DBF4B log2FC,Gene 80174,-0.579
same,CEP290 log2FC,Gene 80184,0.854
same,CEP63 log2FC,Gene 80254,0.741
same,CDK5RAP3 log2FC,Gene 80279,-0.091
same,CEP70 log2FC,Gene 80321,0.756
same,TUBB1 log2FC,Gene 81027,-0.436
same,NDEL1 log2FC,Gene 81565,-0.111
same,FAM83D log2FC,Gene 81610,-0.088
same,CAB39L log2FC,Gene 81617,0.106
same,CCNL2 log2FC,Gene 81669,0.230
same,CABLES2 log2FC,Gene 81928,-0.937
same,KIF18A log2FC,Gene 81930,1.204
same,SESN2 log2FC,Gene 83667,-0.701
same,SETDB2 log2FC,Gene 83852,1.285
same,GSG2 log2FC,Gene 83903,-0.491
same,RASSF4 log2FC,Gene 83937,0.185
same,MND1 log2FC,Gene 84057,0.497
same,HORMAD1 log2FC,Gene 84072,0.519
same,USP44 log2FC,Gene 84101,-0.061
same,CEP78 log2FC,Gene 84131,0.550
same,GINS4 log2FC,Gene 84296,-0.398
same,RAB11FIP4 log2FC,Gene 84440,0.575
same,LZTS2 log2FC,Gene 84445,0.831
same,BRSK1 log2FC,Gene 84446,-0.038
same,SPIRE2 log2FC,Gene 84501,0.454
same,PARD6B log2FC,Gene 84612,0.731
same,PPP1R9B log2FC,Gene 84687,-0.425
same,SPATA22 log2FC,Gene 84690,-0.013
same,BEX2 log2FC,Gene 84707,0.736
same,PSRC1 log2FC,Gene 84722,0.114
same,KLHL22 log2FC,Gene 84861,0.165
same,TBRG1 log2FC,Gene 84897,0.370
same,MASTL log2FC,Gene 84930,0.592
same,LSM10 log2FC,Gene 84967,-1.152
same,CCNB3 log2FC,Gene 85417,0.077
same,LRRCC1 log2FC,Gene 85444,0.773
same,DIXDC1 log2FC,Gene 85458,0.062
same,PNPT1 log2FC,Gene 87178,0.445
same,LMLN log2FC,Gene 89782,0.783
same,KLHL13 log2FC,Gene 90293,0.112
same,GADD45GIP1 log2FC,Gene 90480,-0.402
same,SLFN11 log2FC,Gene 91607,-0.432
same,CENPL log2FC,Gene 91687,0.066
same,CABLES1 log2FC,Gene 91768,1.627
same,SYCE1 log2FC,Gene 93426,-0.072
same,ACTR8 log2FC,Gene 93973,0.366
same,TP53INP1 log2FC,Gene 94241,0.920
same,CDCA5 log2FC,Gene 113130,0.030
same,TUBGCP5 log2FC,Gene 114791,0.520
